Assay results: PubChem BioAssay AID179 (DTP/NCI, 2004)
Several values for one entry are separate records, joined by “and”; a condition that tells them apart may be missing. Equal values may be shown once. Activity calls are given as the source filed them.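 Rule for the calls: active = compounds giving half or more protection of infected cells from virus-caused growth loss, again on retest; inactive = the rest.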

System: CEM cells HIV-1 protection, formazan growth assay
Test: NCI AIDS Antiviral Assay
Conditions: for IC50: measured here: growth of uninfected CEM cells
Outline: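 CEM (human) cells, HIV-1 infected vs uninfected, 5-point dosing, formazan growth read-out. Retest threshold 50% protection.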

| Compound | EC50 [µM] | IC50 | outcome |
| --- | --- | --- | --- |
| O=C1CSC(c2cccc([N+](=O)[O-])c2)N1c1ccc(-n2c(-c3ccccc3)nc3ccccc3c2=O)cc1 (centres undefined) | > 200 | > 200 µM |  |
| COc1ccc2c(c1)CCc1cc(OC)ccc1/[N+]([O-])=[N+]\2[O-] | > 17.4 | > 17.4 µM |  |
| COc1ccc2nc3cccc([N+](=O)[O-])c3c(NCCCCCC(=O)O)c2c1 | > 2 | 0.302 µM |  |
| CCN(CCCc1ccccc1)CCCc1ccccc1 | > 200 | 105 µM |  |
| O=C1OC2(c3ccccc31)c1ccc(O)c(O)c1Oc1c2ccc(O)c1O | > 200 | 36.3 µM and 33.1 µM and 9.55 µM |  |
| COc1ccc(C(C2=C(C)C(=O)c3ccccc3C2=O)c2ccc(C(C)C)cc(=O)c2O)cc1 (centres undefined) |  |  | inactive |
| Nc1nc(Cl)cc(NCC2(CO)CC(c3ccccc3)C2)n1 (centres undefined) | > 20 | 1.58 µM |  |
| C[Si](C)(C)OC=C1CCCCC1 | > 200 | > 200 µM |  |
| Cc1cn(C2CC(NC(=O)N(C)O)C(CO[Si](C)(C)C(C)(C)C)O2)c(=O)[nH]c1=O (centres undefined) | > 200 | 107 µM |  |
| Cc1ccc2nc(CN(CCO)CCO)cc(=O)n2c1 | > 200 | > 200 µM |  |
| CC(=O)N/C(=C\c1ccc(/C=C(\NC(C)=O)C2=NC3C(=O)c4ccccc4C(=O)C3N2)cc1)C1=NC2C(=O)c3ccccc3C(=O)C2N1 (centres undefined) |  |  | inactive |
| CN(C)N=Nc1ccc(S(N)(=O)=O)cc1 | > 295 | 37.2 µM |  |
| CN(O)C(=S)c1ccccc1 | > 14.8 | 0.112 µM |  |
| N#CCCN(c1ccc(/C=C2\N=C(c3ccc(Cl)cc3)OC2=O)cc1)S(=O)(=O)c1ccccc1 | > 72.4 | > 72.4 µM |  |
| N#CC(=C1CCN(Cc2ccccc2)CC1)c1ccccc1 | > 200 | 81.3 µM |  |
| COc1cc(/C=C(\C#N)c2ccc([N+](=O)[O-])cc2)ccc1O | > 151 | 27.5 µM |  |
| Clc1ccc([S+](c2ccc(Cl)cc2)C(Cl)(Cl)C(Cl)(Cl)Cl)cc1 | > 52.5 | 7.24 µM |  |
| Cc1cc(OC(=O)NCn2cc(-c3ccccc3)nn2)ccc1Cl | > 200 | 95.5 µM |  |
| CCC[CH2][Sn]1([CH2]CCC)[O]CC(Cc2ccccc2)[O]1 (centres undefined) | > 17 | 0.331 µM |  |
| Cc1cc2cc3c(=O)[nH]c(=O)cc-3n(CC(O)C(O)C(O)CO)c2cc1C (centres undefined) | > 200 | > 200 µM |  |
| O=C(CSSCC(=O)Nc1ccc(Br)cc1)Nc1ccc(Br)cc1 |  |  | inactive |
| CC1(Br)Cc2ccccc2C1=O (centres undefined) |  |  | inactive |
| COc1c(Cl)cc(S(=O)OC)cc1Cl (centres undefined) |  |  | inactive |

| Compound | EC50 [µM] | IC50 | outcome |
| --- | --- | --- | --- |
| O=C(CN1CCCC1=O)CS(=O)(=O)c1ccccc1 | > 891 | > 891 µM |  |
| O=c1[nH]c2nc3ccccc3nc2[nH]c1=O |  | > 200 µM and 151 µM |  |
| Cc1cc2nc3c4ccccc4n(C)c3nc2cc1C | > 7.59 | 5.25 µM |  |
| CSC(=S)N/N=C/c1nccc2ccccc12 |  |  | inactive |
| CCc1c(Cc2ccccc2)n(COCCO[Si](C)(C)C(C)(C)C)c(=O)[nH]c1=O | > 34.7 | 12.6 µM |  |
| Nc1ccc(N=Nc2ccc(/C=C/c3ccc(N=Nc4ccc(N)c5cc(S(=O)(=O)O)ccc45)cc3S(=O)(=O)O)c(S(=O)(=O)O)c2)c2ccc(S(=O)(=O)O)cc12 | > 107 | 30.2 µM |  |
| Cc1cn(C2CC(N=[N+]=[N-])C(COC(=O)CCCCCCCCCCCOc3ccccc3)O2)c(=O)[nH]c1=O (centres undefined) | 0.0501 | 102 µM |  |
| O=c1c2ccccc2c(=O)n2n1C1C=CC2C1 | > 44.7 | > 44.7 µM |  |
| COc1ccc(N/C=C/C2=[N+](C)c3ccccc3C2(C)C)c(OC)c1 | > 479 | 38.9 µM |  |
| O=C(O)CN(c1ccccc1)S(=O)(=O)c1ccccc1[N+](=O)[O-] |  |  | inactive |
| CC(=O)c1c(-c2ccccc2)c(-c2ccc(OCCN(C)C)cc2)n2ccccc12 | > 200 | 7.59 µM |  |
| CC(C)OP(=O)(OC(C)C)/C(N)=N/Nc1ccc([N+](=O)[O-])cc1 | > 195 | > 100 µM |  |
| CCn1c(N)c(N=O)c(=O)n(CC)c1=O | > 200 | > 200 µM |  |
| CC1=N/C(=C\c2ccc(Br)cc2)C(=O)O1 | > 135 | > 135 µM |  |
| Cc1cc(=O)[nH]c(NN2C(Cl)C(=O)C2c2c(O)ccc3ccccc23)n1 (centres undefined) | > 182 | 24 µM |  |
| COc1ccc(C2=C(N)c3c(Cl)cccc3C2=O)cc1 | > 200 | 155 µM |  |
| Cc1nnc2sc(NN)nn12 | > 200 | 107 µM |  |
| COc1cc(C(CC(C)=O)c2cc3c(cc2OC(C)=O)OCO3)cc(OC)c1OC (centres undefined) (tested in a mixture with another compound) | > 105 | 0.135 µM |  |
| CN(C)CC[N+]1=Nc2cccc3cccc(c23)N1 |  |  | inactive |
| CCOC(=O)Cc1csc(N/N=c2/sc(C=Nc3ccccc3)c(O)n2CC)n1 | > 200 | > 200 µM |  |
| CN1CCC23c4c5cc(-c6cc7c8c(c6O)OC6C(O)C=CC9C(C7)N(C)CCC896)c(O)c4OC2C(O)C=CC3C1C5 (centres undefined) |  |  | inactive |
| COc1ccc2c(c1)OC[C@]1(C)c3cc(O)c(OCc4ccccc4)cc3O[C@H]21 |  |  | inactive |
